Data: patent publication US11447466B2, “Substituted indole compounds useful as inhibitors of TLR7/8/9” (BRISTOL-MYERS SQUIBB COMPANY, priority 2017, dated 2022)

Legend:
Format in all cases: cell-based
human TLR7 = biological target: T1, human TLR7 (Homo sapiens, UniProt Q9NYK1); assay: TLR7 inhibition reporter assay (HEK-Blue SEAP reporter, gardiquimod stimulation); conditions: HEK-Blue cells overexpressing human TLR7, SEAP reporter, gardiquimod 7.5 μM, 22 hour incubation
T1 construct: host or cells: HEK-Blue cells
T1 sequence (Q9NYK1 27-1049): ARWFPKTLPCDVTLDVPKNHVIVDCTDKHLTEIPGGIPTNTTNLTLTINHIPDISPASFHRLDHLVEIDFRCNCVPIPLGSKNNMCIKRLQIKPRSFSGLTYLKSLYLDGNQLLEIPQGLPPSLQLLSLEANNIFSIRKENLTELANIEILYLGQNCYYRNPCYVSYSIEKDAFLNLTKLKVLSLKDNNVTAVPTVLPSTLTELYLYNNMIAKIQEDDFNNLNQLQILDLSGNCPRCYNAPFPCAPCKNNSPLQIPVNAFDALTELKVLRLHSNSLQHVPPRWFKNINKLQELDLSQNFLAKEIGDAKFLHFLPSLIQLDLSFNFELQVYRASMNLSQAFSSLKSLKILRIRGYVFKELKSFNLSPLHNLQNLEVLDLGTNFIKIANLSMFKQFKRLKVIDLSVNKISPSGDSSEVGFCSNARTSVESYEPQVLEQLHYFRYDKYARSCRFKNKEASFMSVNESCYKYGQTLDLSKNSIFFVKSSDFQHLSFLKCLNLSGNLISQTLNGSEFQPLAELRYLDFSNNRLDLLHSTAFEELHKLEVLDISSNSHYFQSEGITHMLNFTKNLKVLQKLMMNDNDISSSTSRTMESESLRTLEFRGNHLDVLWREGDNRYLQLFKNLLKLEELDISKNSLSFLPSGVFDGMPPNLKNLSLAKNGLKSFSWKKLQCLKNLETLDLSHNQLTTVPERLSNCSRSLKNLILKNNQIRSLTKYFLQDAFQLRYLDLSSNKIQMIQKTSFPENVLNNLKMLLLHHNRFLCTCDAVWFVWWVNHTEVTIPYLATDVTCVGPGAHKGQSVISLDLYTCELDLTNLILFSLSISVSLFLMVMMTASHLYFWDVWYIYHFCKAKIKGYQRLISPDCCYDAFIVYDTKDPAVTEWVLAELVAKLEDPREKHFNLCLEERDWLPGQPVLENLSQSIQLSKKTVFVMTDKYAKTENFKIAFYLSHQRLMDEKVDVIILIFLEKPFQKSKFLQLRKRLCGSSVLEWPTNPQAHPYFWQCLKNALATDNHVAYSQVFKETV
Procedure, shortened: (§1)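 Screening used HEK-Blue cells overexpressing one human TLR (7, 8 or 9) and an IFN-β minimal promoter–NF-κB/AP-1 SEAP construct. Stimulation lasted 22 h at 37 °C with receptor-specific agonist: gardiquimod, R848 or ODN2006 at 7.5 μM, 15.9 μM and 5 nM.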

human TLR9 = biological target: T2, human TLR9 (Homo sapiens, UniProt Q9NR96); assay: TLR9 inhibition reporter assay (HEK-Blue SEAP reporter, ODN2006 stimulation); conditions: HEK-Blue cells overexpressing human TLR9, SEAP reporter, ODN2006 5 nM, 22 hour incubation
T2 construct: host or cells: HEK-Blue cells
T2 sequence (Q9NR96 26-1032): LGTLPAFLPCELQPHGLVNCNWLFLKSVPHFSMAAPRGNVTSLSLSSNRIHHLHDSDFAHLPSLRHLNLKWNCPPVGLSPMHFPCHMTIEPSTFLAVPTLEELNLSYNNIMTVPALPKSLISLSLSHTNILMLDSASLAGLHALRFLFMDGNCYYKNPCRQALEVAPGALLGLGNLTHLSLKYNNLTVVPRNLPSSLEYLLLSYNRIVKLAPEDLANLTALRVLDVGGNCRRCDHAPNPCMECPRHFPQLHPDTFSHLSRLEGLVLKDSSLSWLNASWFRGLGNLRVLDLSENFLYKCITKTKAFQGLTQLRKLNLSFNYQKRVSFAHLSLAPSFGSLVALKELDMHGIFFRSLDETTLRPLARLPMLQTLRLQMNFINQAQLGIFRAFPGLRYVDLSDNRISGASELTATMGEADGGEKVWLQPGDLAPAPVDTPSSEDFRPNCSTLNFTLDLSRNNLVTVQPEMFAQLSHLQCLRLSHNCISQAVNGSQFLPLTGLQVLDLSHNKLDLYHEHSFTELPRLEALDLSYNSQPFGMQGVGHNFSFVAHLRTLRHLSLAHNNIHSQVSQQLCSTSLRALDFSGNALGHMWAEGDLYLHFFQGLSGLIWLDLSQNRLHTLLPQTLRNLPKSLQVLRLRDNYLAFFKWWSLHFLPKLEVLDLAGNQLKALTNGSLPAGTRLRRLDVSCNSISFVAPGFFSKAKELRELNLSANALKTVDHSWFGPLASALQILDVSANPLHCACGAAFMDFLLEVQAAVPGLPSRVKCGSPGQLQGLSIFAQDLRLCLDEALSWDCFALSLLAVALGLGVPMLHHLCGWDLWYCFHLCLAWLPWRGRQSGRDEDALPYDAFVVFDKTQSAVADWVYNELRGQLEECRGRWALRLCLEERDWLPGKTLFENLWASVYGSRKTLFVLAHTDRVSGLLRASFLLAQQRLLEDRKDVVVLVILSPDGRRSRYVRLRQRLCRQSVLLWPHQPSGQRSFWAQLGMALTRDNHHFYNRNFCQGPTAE
Procedure, shortened: as §1

human TLR8 = biological target: T3, human TLR8 (Homo sapiens, UniProt Q9NR97); assay: TLR8 inhibition reporter assay (HEK-Blue SEAP reporter, R848 stimulation); conditions: HEK-Blue cells overexpressing human TLR8, SEAP reporter, R848 15.9 μM, 22 hour incubation
T3 construct: host or cells: HEK-Blue cells
T3 sequence (Q9NR97 27-1041): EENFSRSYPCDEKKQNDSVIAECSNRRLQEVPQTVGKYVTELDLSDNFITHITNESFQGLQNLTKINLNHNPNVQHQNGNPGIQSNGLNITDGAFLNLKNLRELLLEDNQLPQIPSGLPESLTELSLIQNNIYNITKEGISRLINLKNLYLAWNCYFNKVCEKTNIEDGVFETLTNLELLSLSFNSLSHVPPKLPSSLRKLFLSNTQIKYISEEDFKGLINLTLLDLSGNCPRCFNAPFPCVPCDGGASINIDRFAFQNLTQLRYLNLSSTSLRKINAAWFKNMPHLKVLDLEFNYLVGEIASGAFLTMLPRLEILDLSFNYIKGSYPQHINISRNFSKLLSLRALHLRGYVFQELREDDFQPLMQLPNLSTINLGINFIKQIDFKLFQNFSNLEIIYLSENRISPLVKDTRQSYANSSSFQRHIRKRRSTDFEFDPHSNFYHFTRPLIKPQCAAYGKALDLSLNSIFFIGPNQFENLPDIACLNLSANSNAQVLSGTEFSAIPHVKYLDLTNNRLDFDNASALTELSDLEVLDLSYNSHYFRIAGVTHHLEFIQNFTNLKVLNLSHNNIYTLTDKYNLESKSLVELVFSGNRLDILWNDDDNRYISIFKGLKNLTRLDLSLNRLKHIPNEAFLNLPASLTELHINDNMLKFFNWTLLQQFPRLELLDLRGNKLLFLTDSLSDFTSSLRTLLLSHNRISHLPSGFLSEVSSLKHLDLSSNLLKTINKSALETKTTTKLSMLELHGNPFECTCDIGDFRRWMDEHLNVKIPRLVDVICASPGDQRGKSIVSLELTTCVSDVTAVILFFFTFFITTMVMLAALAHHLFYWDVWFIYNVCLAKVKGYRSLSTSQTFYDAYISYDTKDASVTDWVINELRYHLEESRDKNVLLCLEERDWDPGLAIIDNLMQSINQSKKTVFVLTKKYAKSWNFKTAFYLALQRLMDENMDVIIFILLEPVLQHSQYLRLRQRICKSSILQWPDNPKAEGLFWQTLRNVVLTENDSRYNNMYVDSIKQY
Procedure, shortened: as §1

IC50 (human TLR7)	IC50 (human TLR9)	IC50 (human TLR8)	Compound
46.6 nM	5850 nM	270 nM	CNC(=O)c1cccc(-c2cc(-c3[nH]c4ccc(C5CCNCC5)cc4c3C(C)C)cn(C)c2=O)c1 [Example 59, 3-(5-(3-isopropyl-5-(piperidin-4-yl)-1H-indol-2-yl)-1-methyl-2-oxo-1,2-dihydropyridin-3-yl)-N-methylbenzamide]
90.3 nM	3060 nM	211 nM	CC(=O)Nc1cccc(-c2cc(-c3[nH]c4ccc(C5CCNCC5)cc4c3C(C)C)cn(C)c2=O)c1 [Example 60, N-(3-(5-(3-isopropyl-5-(piperidin-4-yl)-1H-indol-2-yl)-1-methyl-2-oxo-1,2-dihydropyridin-3-yl)phenyl)acetamide]
2190 nM	2080 nM	2280 nM	CC(C)c1c(-c2cc(CCC(C)(C)C)c(=O)n(C)c2)[nH]c2ccc(C3CCNCC3)cc12 [Example 61, 3-(3,3-dimethylbutyl)-5-(3-isopropyl-5-(piperidin-4-yl)-1H-indol-2-yl)-1-methylpyridin-2(1H)-one]
480 nM	7380 nM	1080 nM	CCCNC(=O)c1cc(-c2[nH]c3ccc(C4CCNCC4)cc3c2C(C)C)cn(C)c1=O [Example 64, 5-(3-isopropyl-5-(piperidin-4-yl)-1H-indol-2-yl)-1-methyl-2-oxo-N-propyl-1,2-dihydropyridine-3-carboxamide]
976 nM	3100 nM	75.1 nM	Cc1c(-c2[nH]c3ccc(C4CCNCC4)cc3c2C(C)C)cn(C)c(=O)c1-c1cccnc1 [Example 65, 5-(3-isopropyl-5-(piperidin-4-yl)-1H-indol-2-yl)-1,4-dimethyl-[3,3′-bipyridin]-2(1H)-one]
12.6 nM	764 nM	70.5 nM	CC(C)c1cc(-c2[nH]c3ccc(C4CCNCC4)cc3c2C(C)C)cn(C)c1=O [Example 66, 3-isopropyl-5-(3-isopropyl-5-(piperidin-4-yl)-1H-indol-2-yl)-1-methylpyridin-2(1H)-one]
4.3 nM	919 nM	5.9 nM	CCc1cc(-c2[nH]c3ccc(C4CCNCC4)cc3c2C(C)C)cn(C)c1=O [Example 67, 3-ethyl-5-(3-isopropyl-5-(piperidin-4-yl)-1H-indol-2-yl)-1-methylpyridin-2(1H)-one]
8.5 nM	5360 nM	9.8 nM	CCc1cc(-c2[nH]c3ccc(C4CCNCC4)cc3c2C(C)C)cn(CC)c1=O [Example 68, 1,3-diethyl-5-(3-isopropyl-5-(piperidin-4-yl)-1H-indol-2-yl)pyridin-2(1H)-one]
333 nM	≥ 50000 nM	180 nM	CC(C)c1c(-c2cc(C(=O)N3CCCC3)c(=O)n(C)c2)[nH]c2ccc(C3CCNCC3)cc12 [Example 69, 5-(3-isopropyl-5-(piperidin-4-yl)-1H-indol-2-yl)-1-methyl-3-(pyrrolidine-1-carbonyl) pyridin-2(1H)-one]
8.6 nM	2450 nM	26.1 nM	CC(C)c1c(-c2cc(CO)c(=O)n(C)c2)[nH]c2ccc(C3CCNCC3)cc12 [Example 70, 3-(hydroxymethyl)-5-(3-isopropyl-5-(piperidin-4-yl)-1H-indol-2-yl)-1-methylpyridin-2(1H)-one]
2.8 nM	11000 nM	5.1 nM	Cc1cc(-c2[nH]c3ccc(C4CCN(CC(=O)N(C)C)CC4)cc3c2C(C)C)cn(C)c1=O [Example 71, 2-(4-(2-(1,5-dimethyl-6-oxo-1,6-dihydropyridin-3-yl)-3-isopropyl-1H-indol-5-yl)piperidin-1-yl)-N,N-dimethylacetamide]
21.8 nM	≥ 50000 nM	17.3 nM	Cc1cc(-c2[nH]c3ccc(C4CCN(Cc5ncn(C)n5)CC4)cc3c2C(C)C)cn(C)c1=O [Example 72, 5-(3-isopropyl-5-(1-((1-methyl-1H-1,2,4-triazol-3-yl)methyl)piperidin-4-yl)-1H-indol-2-yl)-1,3-dimethylpyridin-2(1H)-one]
8 nM	6070 nM	3.3 nM	Cc1c(-c2[nH]c3ccc(C4CCN(CCC(C)(C)O)CC4)cc3c2C(C)C)cn(C)c(=O)c1C [Example 73, 5-(5-(1-(3-hydroxy-3-methylbutyl)piperidin-4-yl)-3-isopropyl-1H-indol-2-yl)-1,3,4-trimethylpyridin-2(1H)-one]
20.9 nM	4330 nM	4.9 nM	Cc1cc(-c2[nH]c3ccc(C4CCN(CCC(C)(C)O)CC4)cc3c2C(C)C)c(C)n(C)c1=O [Example 74, 5-(5-(1-(3-hydroxy-3-methylbutyl)piperidin-4-yl)-3-isopropyl-1H-indol-2-yl)-1,3,6-trimethylpyridin-2(1H)-one]
5 nM	9330 nM	5.6 nM	Cc1cc(-c2[nH]c3ccc(C4CCN(CC(C)C)CC4)cc3c2C(C)C)cn(C)c1=O [Example 75, 5-(5-(1-isobutylpiperidin-4-yl)-3-isopropyl-1H-indol-2-yl)-1,3-dimethylpyridin-2(1H)-one]
